The values below come from patent publication US10138207B2, “Benzomorphan analogs and the use thereof” (priority 2012, dated 2018).

Experiment [1] has as its target T1, μ-opioid receptor (Homo sapiens, UniProt P35372). In words: μ-opioid receptor [35S]GTPγS functional assay, HEK-293 or CHO cells. The note with it: for Emax: read-out: GTPγS μ Emax.
Experiment [2] deals with κ opioid receptor (Homo sapiens, UniProt P41145). Briefly: biochemical. The experiment is classed as binding. More on the design: expressed in transfected cells; host or cells: HEK 293 (in-house membrane prep). The note with it: HEK-293 or CHO cells.
Sequence of κ opioid receptor (P41145 whole entry): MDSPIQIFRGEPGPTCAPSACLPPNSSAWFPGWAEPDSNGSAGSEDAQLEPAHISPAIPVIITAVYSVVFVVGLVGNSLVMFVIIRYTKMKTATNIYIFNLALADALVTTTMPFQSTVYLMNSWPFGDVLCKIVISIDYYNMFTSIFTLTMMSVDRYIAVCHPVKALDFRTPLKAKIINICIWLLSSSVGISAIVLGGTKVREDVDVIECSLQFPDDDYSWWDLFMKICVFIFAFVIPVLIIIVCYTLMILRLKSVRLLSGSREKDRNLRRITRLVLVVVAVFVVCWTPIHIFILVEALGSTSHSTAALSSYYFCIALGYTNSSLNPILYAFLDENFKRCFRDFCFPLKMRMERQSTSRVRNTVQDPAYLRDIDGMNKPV
Experiment [3] concerns the target T1, μ-opioid receptor. In words: μ-opioid receptor [35S]GTPγS functional assay, U-2 OS cells. The experiment is classed as biochemical. More on the design: expressed in transfected cells; host or cells: U-2 OS. The note with it: for Emax: relative to DAMGO, read-out: GTPγS μ Emax.
[4] abbreviates: U-2 OS cells, read-out: GTPγS μ EC50.

T1 sequence (P35372 whole entry, species assumed): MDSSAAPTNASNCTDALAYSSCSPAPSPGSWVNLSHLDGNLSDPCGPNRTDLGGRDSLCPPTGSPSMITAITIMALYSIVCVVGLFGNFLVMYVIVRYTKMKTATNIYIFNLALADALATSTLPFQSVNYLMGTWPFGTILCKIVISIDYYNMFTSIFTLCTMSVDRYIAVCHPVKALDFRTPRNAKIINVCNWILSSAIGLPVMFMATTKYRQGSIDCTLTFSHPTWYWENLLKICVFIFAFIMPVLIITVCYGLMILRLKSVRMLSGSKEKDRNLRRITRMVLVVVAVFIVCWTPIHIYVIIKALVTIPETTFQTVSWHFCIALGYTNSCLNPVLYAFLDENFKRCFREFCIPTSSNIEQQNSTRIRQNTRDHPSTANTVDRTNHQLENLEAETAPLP

As for `COc1ccc2c(c1)[C@@]1(C)CCN(C)C(C2)[C@@H]1c1cccc(-c2nnn[nH]2)c1` [Compound 42, (6S,11R)-11-(3-(1H-tetrazol-5-yl)phenyl)-8-methoxy-3,6-dimethyl-1,2,3,4,5,6-hexahydro-2,6-methanobenzo[d]azocine], the half-maximal effective concentration (EC50) in experiment [1] was over 20 µM. Moreover, in experiment [2] (bound in μM), the Ki was over 20 µM.

On to `CN1CC[C@]2(C)c3cc(O)ccc3CC1C2N(C)C(=O)Nc1ccc(C(=O)O)cc1` (stereo in doubt) [Compound 45, 4-(3-((2R,6R,11S)-8-hydroxy-3,6-dimethyl-1,2,3,4,5,6-hexahydro-2,6-methanobenzo[d]azocin-11-yl)-3-methylureido)benzoic acid], for which, in experiment [1], the EC50 worked out at 3.85 ± 0.839 µM and the Emax stood at 17 ± 3.06%. In addition, the Ki in experiment [2] (bound in μM) is over 20 µM.

Turning to `CN1CC[C@]2(C)c3cc(O)ccc3CC1C2N(C)C(=O)NCCC(=O)O` (stereo in doubt) [Compound 68, 3-(3-((2R,6R,11S)-8-hydroxy-3,6-dimethyl-1,2,3,4,5,6-hexahydro-2,6-methanobenzo[d]azocin-11-yl)-3-methylureido)propanoic acid], in experiment [1], the response was half-maximal at 0.55 ± 0.0316 µM (EC50) and the Emax came out at 98 ± 1.73%. Moreover, the affinity in experiment [2] corresponds to a Ki of 0.799 ± 0.0982 µM.

`COc1ccc2c(c1)[C@@]1(C)CCN(C)C(C2)[C@]1(O)c1cccc(C#N)c1` [Compound 37, 3-((6R,11S)-11-hydroxy-8-methoxy-3,6-dimethyl-1,2,3,4,5,6-hexahydro-2,6-methanobenzo[d]azocin-11-yl)benzonitrile] gave a concentration giving a half-maximal response (EC50) in experiment [1] of over 20 µM. In experiment [2] (bound in μM), this molecule showed a Ki of over 20 µM.

Take `CN1CC[C@]2(C)c3cc(O)ccc3C[C@@H]1[C@H]2COc1cncc(C(=O)O)c1` [Compound 33, 5-(((2R,6S,11S)-8-hydroxy-3,6-dimethyl-1,2,3,4,5,6-hexahydro-2,6-methanobenzo[d]azocin-11-yl)methoxy)nicotinic acid]: in experiment [1], the midpoint of the response, the EC50, lay at 2.45 ± 0.167 µM and the Emax was 49 ± 3.67%. Also, the Ki in experiment [2] amounted to 2.84 ± 0.342 µM.

Take `COc1ccc2c(c1)[C@@]1(C)CCN(CC3CC3)[C@H](C2)[C@H]1N(C)CC(=O)O` [Compound 73, 2-(((2R,6R,11S)-3-(cyclopropylmethyl)-8-methoxy-6-methyl-1,2,3,4,5,6-hexahydro-2,6-methanobenzo[d]azocin-11-yl)(methyl)amino)acetic acid]: in experiment [1], the half-maximal effective concentration (EC50) is 18.1 ± 2.72 µM and the Emax amounted to 25 ± 2.52%. The molecule further gave a Ki in experiment [2] (bound in μM) of over 20 µM.

Consider `CN1CC[C@]2(C)c3cc(O)ccc3C[C@@H]1[C@H]2N(C)C(=O)c1cccc(C(=O)O)c1` [Compound 47, 3-(((2R,6R,11S)-8-hydroxy-3,6-dimethyl-1,2,3,4,5,6-hexahydro-2,6-methanobenzo[d]azocin-11-yl)(methyl)carbamoyl)benzoic acid], for which, in experiment [1], the midpoint of the response, the EC50, lay at 8.89 ± 0.655 µM and the Emax was 58.7 ± 5.24%. For the same molecule, in experiment [2], affinity was put at a Ki of 20 µM.

In turn, `COc1ccc2c(c1)[C@@]1(C)CCN(C)C(C2)[C@@H]1c1cccc(C#N)c1` [Compound 36, 3-((6S,11R)-8-methoxy-3,6-dimethyl-1,2,3,4,5,6-hexahydro-2,6-methanobenzo[d]azocin-11-yl)benzonitrile] returned an EC50 in experiment [1] of over 20 µM. This molecule also had a Ki in experiment [2] of 4.19 ± 1.05 µM.

With `CN1CC[C@]2(C)c3cc(O)ccc3CC1[C@@H]2CC(=O)N1CCC[C@H]1C(=O)O` [Compound 55, (2S)-1-(2-((6S,11R)-8-hydroxy-3,6-dimethyl-1,2,3,4,5,6-hexahydro-2,6-methanobenzo[d]azocin-11-yl)acetyl)pyrrolidine-2-carboxylic acid], in experiment [1], the EC50 is 5.91 ± 0.422 µM and the Emax is 71 ± 8.08%. This molecule also yielded a Ki in experiment [2] (bound in μM) of over 20 µM.

Take `CN1CC[C@]2(C)c3cc(O)ccc3CC1[C@@H]2COc1cc(C(N)=O)ccn1` [Compound 53, 2-(((6S,11R)-8-hydroxy-3,6-dimethyl-1,2,3,4,5,6-hexahydro-2,6-methanobenzo[d]azocin-11-yl)methoxy)isonicotinamide]: in experiment [1], the EC50 amounted to 1.11 ± 0.21 µM and the Emax is 82.7 ± 1.2%. In addition, the Ki in experiment [2] worked out at 0.701 ± 0.058 µM.

For `COc1ccc2c(c1)[C@@]1(C)CCN(C)C(C2)[C@@]1(O)c1cccc(-c2nnn[nH]2)c1` [Compound 65, (6R,11R)-11-(3-(1H-tetrazol-5-yl)phenyl)-8-methoxy-3,6-dimethyl-1,2,3,4,5,6-hexahydro-2,6-methanobenzo[d]azocin-11-ol], in experiment [1], it took 5.06 ± 1.15 µM to reach a half-maximal effect (EC50) and the Emax amounted to 21.7 ± 2.85%. In addition, the Ki in experiment [2] (bound in μM) is over 20 µM.

As for `COc1ccc2c(c1)[C@@]1(C)CCN(CC3CC3)C(C2)[C@H]1N(C)C(=O)Nc1ccc(C(N)=O)cc1` [Compound 82], the EC50 in experiment [3] (U-2 OS cells, bound in μM, read-out: GTPγS μ EC50) is over 20 µM. The Emax in experiment [3] (U-2 OS cells) worked out at 31.7 ± 5.36%. In addition, affinity in experiment [2] was put at a Ki of 10.2 µM.

For the molecule `CN(C)C(=O)C(CCN1CC[C@]2(C)c3cc(O)ccc3CC1C2N(C)C(=O)Nc1ccc(C#N)cc1)(c1ccccc1)c1ccccc1` (stereo in doubt) [Compound 84, 4-((2R,6R,11S)-11-(3-(4-cyanophenyl)-1-methylureido)-8-hydroxy-6-methyl-1,2,5,6-tetrahydro-2,6-methanobenzo[d]azocin-3(4H)-yl)-N,N-dimethyl-2,2-diphenylbutanamide], in experiment [3] (setting [4]), the EC50 came out at 0.0839 ± 0.0133 µM. The Emax in experiment [3] (U-2 OS cells) was 90.7 ± 1.86%. In experiment [2], this molecule had a Ki of 0.269 ± 0.0277 µM.

For the molecule `COc1ccc2c(c1)[C@@]1(C)CCN(CC3CC3)[C@H](C2)[C@H]1N(C)C(=O)/C=C/c1ccoc1` [Compound 85, (E)-N-((2R,6R,11S)-3-(cyclopropylmethyl)-8-methoxy-6-methyl-1,2,3,4,5,6-hexahydro-2,6-methanobenzo[d]azocin-11-yl)-3-(furan-3-yl)-N-methylacrylamide], the EC50 in experiment [3] (setting [4]) stood at 3.24 ± 0.77 µM. Moreover, the Emax in experiment [3] (U-2 OS cells) worked out at 19.3 ± 2.33%. Also, the Ki in experiment [2] turned out to be 0.701 ± 0.0941 µM.

As for `COc1ccc2c(c1)[C@@]1(C)CCN(C)[C@@H](C2)C1=NNC(=O)c1ccc(F)cc1` [Compound 26, 4-fluoro-N′-((2S,6R)-8-methoxy-3,6-dimethyl-1,2,3,4,5,6-hexahydro-2,6-methanobenzo[d]azocin-11-ylidene)benzohydrazide], the EC50 in experiment [3] (GTPγS μ EC50, U-2 OS cells) was 1.19 ± 0.0939 µM. Further, in experiment [3] (U-2 OS cells), the Emax is 91 ± 7.09%. The same molecule came in with a Ki in experiment [2] (bound in μM) of over 20 µM.

As for `CN1CC[C@]2(C)c3cc(O)ccc3CC1C2N(C)C(=O)CCC(=O)O` (stereo in doubt) [Compound 28, 4-(((2R,6R,11S)-8-hydroxy-3,6-dimethyl-1,2,3,4,5,6-hexahydro-2,6-methanobenzo[d]azocin-11-yl)(methyl)amino)-4-oxobutanoic acid], the EC50 in experiment [3] (setting [4]) worked out at 1.56 ± 0.106 µM. Besides, the Emax in experiment [3] (U-2 OS cells) turned out to be 74.7 ± 4.63%. Further, affinity in experiment [2] was put at a Ki of 18.2 µM.

`CN1CCC2(C)C(=NO)C1Cc1ccc(O)cc12` (centres unmarked) [Compound 18, 8-hydroxy-3,6-dimethyl-1,2,3,4,5,6-hexahydro-2,6-methanobenzo[d]azocin-11-one oxime] had an inhibitory constant (Ki) in experiment [2] of 5.58 ± 1.01 µM.

`COc1ccc2c(c1)C1(C)CCN(CCC(C(=O)N(C)C)(c3ccccc3)c3ccccc3)C(C2)C1=NO` (centres unmarked) [Compound 19, 4-(11-(hydroxyimino)-8-methoxy-6-methyl-1,2,5,6-tetrahydro-2,6-methanobenzo[d]azocin-3(4H)-yl)-N,N-dimethyl-2,2-diphenylbutanamide] came in with a Ki in experiment [2] of 8.52 ± 0.605 µM.

With `CN[C@@H]1C2Cc3ccc(OC)cc3[C@@]1(C)CCN2C` [Compound 8, (6R,11S)-8-methoxy-N,3,6-trimethyl-1,2,3,4,5,6-hexahydro-2,6-methanobenzo[d]azocin-11-amine], in experiment [2] (bound in μM), the Ki is over 20 µM.

As for `CN1CC[C@]2(C)c3cc(O)ccc3C[C@@H]1[C@H]2N(C)C(=O)Nc1ccc(C#N)cc1` [Compound 79, 3-(4-cyanophenyl)-1-((2R,6R,11S)-8-hydroxy-3,6-dimethyl-1,2,3,4,5,6-hexahydro-2,6-methanobenzo[d]azocin-11-yl)-1-methylurea], in experiment [3] (setting [4]), the EC50 is 2.2 ± 0.668 µM. The Emax in experiment [3] (U-2 OS cells) came out at 49 ± 3.46%. Also, the Ki in experiment [2] was 3.14 ± 0.805 µM.

`CCOC(=O)C[C@H]1C2Cc3ccc(OC)cc3[C@@]1(C)CCN2C` [Compound 14, ethyl 2-((6S,11R)-8-methoxy-3,6-dimethyl-1,2,3,4,5,6-hexahydro-2,6-methanobenzo[d]azocin-11-yl)acetate] yielded an inhibition constant Ki in experiment [2] of 14.3 µM.

In experiment [2] (bound in μM), `COc1ccc2c(c1)[C@@]1(C)CCN(C)C(C2)[C@@H]1CO` [Compound 11, ((6S,11R)-8-methoxy-3,6-dimethyl-1,2,3,4,5,6-hexahydro-2,6-methanobenzo[d]azocin-11-yl)methanol] returned a Ki of over 20 µM.

As to `COc1ccc2c(c1)[C@@]1(C)CCN(CC3CC3)[C@H](C2)[C@H]1N(C)C(=O)/C=C\c1ccoc1` [Compound 86, (Z)—N-((2R,6R,11S)-3-(cyclopropylmethyl)-8-methoxy-6-methyl-1,2,3,4,5,6-hexahydro-2,6-methanobenzo[d]azocin-11-yl)-3-(furan-3-yl)-N-methylacrylamide], the EC50 in experiment [3] (setting [4]) stood at 2.15 ± 0.21 µM. The Emax in experiment [3] (U-2 OS cells) came out at 14.7 ± 0.88%. The molecule further came in with a Ki in experiment [2] of 0.979 ± 0.146 µM.

For the molecule `COc1ccc2c(c1)C1(C)CCN(C)C(C2)/C1=C\C(=O)O` (centres unmarked) [Compound 13, (Z)-2-(8-methoxy-3,6-dimethyl-1,2,3,4,5,6-hexahydro-2,6-methanobenzo[d]azocin-11-ylidene)acetic acid], the Ki in experiment [2] (bound in μM) is over 20 µM.

For `CCOC(=O)/C=C1\C2Cc3ccc(OC)cc3C1(C)CCN2C` (centres unmarked) [Compound 12], the Ki in experiment [2] (bound in μM) is over 20 µM.

Consider `CON=C1C2Cc3ccc(OC)cc3C1(C)CCN2CC1CC1` (centres unmarked) [Compound 10, 3-(cyclopropylmethyl)-8-methoxy-6-methyl-1,2,3,4,5,6-hexahydro-2,6-methanobenzo[d]azocin-11-one O-methyl Oxime], for which, in experiment [2], the Ki was 2.14 ± 0.151 µM.
